# In patent US10174384B2, “Use of the ZMIZ1 marker in directing treatment and predicting survival in cancer” (THE JOHNS HOPKINS UNIVERSITY, priority 2015, dated 2019):
# Tested on: U251 cell line
# Assay: Cell titer glo viability, siRNA combined with temozolamide
# Assay type: cell-based
# Settings: three days post treatment, combined with 1 mM temozolamide, p<0.0001 vs siRNA alone, P<0.01 vs temozolamide alone
# Text: siRNA s32836 targeting both the full ZMIZ1 transcript (uc001kaf.2) and the truncated ZMIZ1 transcript (uc001kag.2) was purchased from Life Technologies (Grand Island, N.Y., USA), and two custom designed Stealth siRNAs (referred to as 56 and 62) targeting specifically uc001kag.2 were designed (Life Technologies) for all in vitro assays. The sequence of stealth_56 is Sense: […] (SEQ ID NO:23), Anti-Sense: […] (SEQ ID NO:24), the sequence for stealth_62 is Sense: […] (SEQ ID NO:25), Anti-Sense: […] (SEQ ID NO:26). Appropriate scrambled siRNAs were used as controls. Hyper-expressing plasmids were designed for both the full and the truncated plasmids. Appropriate empty vector was used as control for all in vitro assays described. Cells were transfected using Lipofectamine 2000 and the respective siRNA or plasmid and were treated for 6 h. The media was changed after 6 h and the regular culture media was subsequently used.
# U87 and U251 GBM cell lines were treated with varying doses of temozolamide (Sigma Aldrich, St Louis, Mo.). 1000 cells/well were seeded in a 96 well plate. […] Cells were followed for 3 days, and at the third day, viability was assessed with the cell titer glo assay.
substance,measurement,value
"56 siRNA: custom designed Stealth siRNA targeting specifically uc001kag.2; Sense SEQ ID NO:23, Anti-Sense SEQ ID NO:24 (sense CCGGUGCAACUUCUAGCCUUGUUGU; antisense ACAACAAGGCUAGAAGUUGCACCGG; Stealth siRNA, chemical modification pattern not given here)","viability, combination compared to siRNA alone or temozolamide alone",statistically significant decrease in viability
